Source: patent EP1669365A1, “Method for preparing enzymatic substrate analogs as inhibitors of bacterial heptosyl-transferases” (priority 2004, dated 2006)

Molecular target: T1, WaaC (Escherichia coli, UniProt P24173)
T1 construct: made in house; host or cells: E. coli BL21 double mutant with the heptosyltransferase I and II genes deleted
Test: WaaC IC50 fluorimetric in vitro heptosyltransferase assay (NADH fluorescence, pyruvate kinase/lactate dehydrogenase coupled)
Type: biochemical
Settings: inhibitory activity on Waac enzymatic activity; 1nM purified WaaC, 3µM Re-LPS, pH 7.0
Method: A fluorimetric in vitro assay was set up to quantify the enzymatic activity of purified heptosyl transferase.Said fluorimetic assay is used to identify inhibitors and for measuring IC50 determinations.
WaaC IC50 assays are performed in black 96-well plates (Wallac) in a final volume of 100µL at pH 7.0 comprising: the inhibitor studied dissolved in 2µL DMSO at 10 different concentrations, 50mM HEPES, 10mM MgCl2, 50mM KCl, 0.1% Triton-), 3µM Re-LPS (Sigma, purified from Salmonella Minnesota), 1nM of purified WaaC, 5u/mL Pyruvate kinase (Sigma), 50µM Phosphoenolpyruvate (Sigma), 5u/mL Lactate dehydrogenase (Sigma) and 1.5µM NADH (Sigma). Fluorescence intensity of NADH (λex= 360nm, λem=520nm) is read once before enzyme addition (background), and is followed kinetically afterwards. Initial velocities are determined from the linear phase after background substraction. IC50 curves are fitted to a classical sigmoidal model with Hill slope.

T1 sequence (P24173 whole entry): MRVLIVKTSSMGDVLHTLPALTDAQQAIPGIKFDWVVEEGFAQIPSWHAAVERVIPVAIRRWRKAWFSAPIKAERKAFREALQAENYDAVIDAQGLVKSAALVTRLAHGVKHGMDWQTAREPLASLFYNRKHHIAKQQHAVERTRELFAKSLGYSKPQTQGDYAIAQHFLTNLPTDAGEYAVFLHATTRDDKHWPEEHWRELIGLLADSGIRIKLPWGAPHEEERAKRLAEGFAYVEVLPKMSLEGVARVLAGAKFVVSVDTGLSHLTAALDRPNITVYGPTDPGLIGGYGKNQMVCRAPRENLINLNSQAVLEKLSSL

With “Adenosine 5'-diphospho-2-Deoxy-2-fluoro-6-L-glycero-β-D-heptoglucopyranoside” the IC50 was 57 µM.
